According to ChEMBL document CHEMBL1147491, “Complestatin synthetic studies; the effect of the amino acid configuration on peptide backbone conformation in the common western BCD macrocycle” (Bioorg Med Chem Lett, 2004):

What was measured:
Design in all cases: species or system Homo sapiens
[1] = Compound required to inhibit binding of CD4 to gp120 in the presence of bovine serum albumin(BSA)
[2] = Compound required to inhibit binding of CD4 to gp120 in the absence of bovine serum albumin(BSA)
[3] = Compound required to inhibit binding of CD4 to gp120 at 100 uM concentration; No inhibition

CN1C(=O)[C@@H](c2cc(Cl)c(O)c(Cl)c2)NC(=O)[C@@H]2NC(=O)[C@@H](c3cc(Cl)c(O)c(Cl)c3)NC(=O)[C@H](NC(=O)C(=O)c3cc(Cl)c(O)c(Cl)c3)Cc3c[nH]c4c(cccc34)-c3cc2cc(c3O)Oc2ccc(cc2)C[C@H]1C(=O)N[C@@H](C(=O)O)c1ccc(O)cc1 [CHLOROPEPTIN]
IC50 [1]: 2 µM | IC50 [2]: 32 µM

CN[C@H](CC(C)C)C(=O)N[C@H]1C(=O)N[C@@H](CC(N)=O)C(=O)N[C@H]2C(=O)N[C@H]3C(=O)N[C@H](C(=O)N[C@H](C(=O)O)c4cc(O)cc(O)c4-c4cc3ccc4O)[C@H](O)c3ccc(c(Cl)c3)Oc3cc2cc(c3O[C@@H]2O[C@H](CO)[C@@H](O)[C@H](O)[C@H]2O[C@H]2C[C@](C)(N)[C@H](O)[C@H](C)O2)Oc2ccc(cc2Cl)[C@H]1O [VANCOMYCIN]
IC50 [3]: No inhibition
